Laboratory results from patent US8338638B2, “Antimicrobial derivatives of anacardic acid and process for preparing the same” (Unichem Laboratories Ltd., priority 2006, dated 2012).
Converted amounts (≈) assume the structure as drawn. Read-outs that look alike come from different tables or passages of the source.

What was measured:
E. fecalis = assay: Broth assay, antibacterial activity (MIC/MBC) against E. fecalis; type: cell-based; details: Enterococcus; for MIC: 24 h
Method: (§1) The invention specifically relates to the process for the preparation of antimicrobial derivatives of saturated anacardic acid (C15:0). The mixture of anacardic acids chromatographically purified from CNSL was hydrogenated using Pd—C to get the saturated anacardic acid (C15:0). Said derivatives were prepared by adopting the techniques used in synthetic chemistry for nitration, halogenation and acetylation of various organic compounds. The synthesized derivatives were assayed for anti bacterial activity against Stapphalococcus aureus and Methicillin resistant Stapphalococcus aureus and Enterococcus fecalis by the broth assay used for antibiotic susceptibility tests and the minimum inhibitory concentration (MIC) and minimum bactericidal concentration (MBC) determined.
(§2) Procedure for Antimicrobial Testing:
(§3) The bacterial colonies from Luria-Bertani (LB) agar plates were inoculated into sterile LB broth and incubated in an incubator shaker for 12 h. This culture was diluted such that the innoculum when added to the test broth would correspond to 10^5 colony forming units (CFU). The broth assays were done in sterile culture tubes containing 5 mL of LB medium. The test compounds dissolved in ethanol and controls were added to these tubes and then the innoculum was added and the tubes incubated at 37° C. for 24 h. After 24 h incubation the OD600 was recorded and then plated on LB agar plates and incubated fore 24 h at 37° C. The colonies were counted and the minimum inhibitory concentration (MIC) and minimum bactericidal concentration (MBC) calculated. The MIC is determined by the minimum concentration of the sample at which no growth was observed as determined by measuring the OD600. The MBC is determined by the concentration at which there is a reduction in the cfu in the broth assay from 10^5 to 10^3 counted after plating on LB agar plates.

Sa (NCTC8325) = assay: Broth assay, antibacterial activity (MIC/MBC) against Sa (NCTC8325); type: cell-based, Stapphalococcus aureus; details: for MIC: 24 h
Method: as §1, §2, §3

MRSA [1] = assay: Broth assay, antibacterial activity (MIC/MBC) against MRSA; type: cell-based, Methicillin resistant Stapphalococcus aureus; details: Staphylococcus aureus; for MIC: 24 h
Method: as §1, §2, §3

MRSA [2] = details: against MRSA; Kube et al; cited from earlier work
[3] = E. fecalis, LB broth, 37° C., no growth by OD600, read-out: MIC
[4] = E. fecalis, reduction in cfu from 10^5 to 10^3 after plating on LB agar, read-out: MBC
[5] = Sa (NCTC8325), LB broth, 37° C., no growth by OD600, read-out: MIC
[6] = Sa (NCTC8325), reduction in cfu from 10^5 to 10^3 after plating on LB agar, read-out: MBC
[7] = LB broth, 37° C., no growth by OD600, read-out: MIC
[8] = reduction in cfu from 10^5 to 10^3 after plating on LB agar, read-out: MBC

| Compound | MIC (E. fecalis; [3]) | MBC (E. fecalis; [4]) | MIC (Sa (NCTC8325); [5]) | MBC (Sa (NCTC8325); [6]) | MIC (MRSA [1]; [7]) | MBC (MRSA [1]; [8]) | minimum inhibitory concentration (MIC) (MRSA [2]) | MBC (E. fecalis) | MIC (E. fecalis) | MBC (Sa (NCTC8325)) | MIC (Sa (NCTC8325)) | MBC (MRSA [1]) | MIC (MRSA [1]) |
| --- | --- | --- | --- | --- | --- | --- | --- | --- | --- | --- | --- | --- | --- |
| CCCCCCCCCCCCCCCc1cccc(OC)c1C(=O)NC(Cc1ccc(O)cc1)C(=O)O (centres unmarked) [MAAY] | 6 µg/mL (≈ 11.4 µM) | > 10 µg/mL | 3 to 5 µg/mL (≈ 5.71 to 9.51 µM) | > 10 µg/mL | 2 µg/mL (≈ 3.8 µM) | 10 µg/mL (≈ 19 µM) |  |  |  |  |  |  |  |
| CCCCCCCCCCCCCCCc1c([N+](=O)[O-])cc([N+](=O)[O-])c(OC(C)=O)c1C(=O)O [ADAA, 3,5-Dinitro-6-pentadecyl-2-acetyloxybenzoic acid] | 6 µg/mL (≈ 12.5 µM) | 6 µg/mL (≈ 12.5 µM) | 2 µg/mL (≈ 4.16 µM) | 6 µg/mL (≈ 12.5 µM) | 4 µg/mL (≈ 8.32 µM) | 10 µg/mL (≈ 20.8 µM) |  |  |  |  |  |  |  |
| CCCCCCCCCCCCCCCc1cccc(OC(C)=O)c1C(=O)O [AAA, 6-Pentadecyl-2-acetyloxybenzoic acid] | 1 µg/mL (≈ 2.56 µM) | 6 µg/mL (≈ 15.4 µM) | 6 µg/mL (≈ 15.4 µM) | 7 to 8 µg/mL (≈ 17.9 to 20.5 µM) | 2 µg/mL (≈ 5.12 µM) | 6 µg/mL (≈ 15.4 µM) |  |  |  |  |  |  |  |
| CCCCCCCCCCCCCCCc1c(Br)ccc(OC(C)=O)c1C(=O)O [ADBAA, 5-Bromo-6-pentadecyl-2-acetyloxybenzoic acid] | 1 µg/mL (≈ 2.13 µM) | 3 µg/mL (≈ 6.39 µM) | > 10 µg/mL | > 10 µg/mL | 9 to 10 µg/mL (≈ 19.2 to 21.3 µM) | > 10 µg/mL |  |  |  |  |  |  |  |
| CCCCCCCCCCCCCCCc1cc([N+](=O)[O-])c([N+](=O)[O-])c(OC(C)=O)c1C(=O)O [ANAA, 3,4-Dinitro-6-pentadecyl-2-acetyloxybenzoic acid] | 0.5 µg/mL (≈ 1.04 µM) | 7 µg/mL (≈ 14.6 µM) | 1 µg/mL (≈ 2.08 µM) | > 10 µg/mL | 2 µg/mL (≈ 4.16 µM) | > 10 µg/mL |  |  |  |  |  |  |  |
| C=CCC=CCC=CCCCCCCCc1cccc(O)c1C(=O)O [triene (C15:3)] |  |  |  |  |  |  | 6.5 µg/mL (≈ 19 µM) |  |  |  |  |  |  |
| CCCCCCCCCCCCCCCc1c([N+](=O)[O-])cc([N+](=O)[O-])c(OC)c1C(=O)O [MDAA, 3,5-Dinitro-6-pentadecyl-2-Methoxybenzoic acid] | 0.5 µg/mL (≈ 1.1 µM) | 2 µg/mL (≈ 4.42 µM) | 6 µg/mL (≈ 13.3 µM) | 8 µg/mL (≈ 17.7 µM) | 2 µg/mL (≈ 4.42 µM) | 4 µg/mL (≈ 8.84 µM) |  |  |  |  |  |  |  |
| CCCCCCCCCCCCCCCc1c(Br)ccc(OC)c1C(=O)O [MDBAA, 5Bromo-6-pentadecyl-2-methoxybenzoic acid] | 1 µg/mL (≈ 2.27 µM) | 3 µg/mL (≈ 6.8 µM) | 3 to 5 µg/mL (≈ 6.8 to 11.3 µM) | 5 µg/mL (≈ 11.3 µM) | 0.5 µg/mL (≈ 1.13 µM) | 4 µg/mL (≈ 9.06 µM) |  |  |  |  |  |  |  |
| CCCCCCCCCCCCCCCc1cccc(OC)c1C(=O)Nc1ccc(C(=O)O)cc1 [MAA-PABA] | 6 µg/mL (≈ 12.5 µM) | > 10 µg/mL | > 10 µg/mL | > 10 µg/mL | > 20 µg/mL | > 20 µg/mL |  |  |  |  |  |  |  |
| CCCCCCCCCCCCCCCc1c(Br)ccc(O)c1C(=O)O [DBAA, 5-Bromo-6-pentadecyl-2-hydroxybenzoic acid] | 6 µg/mL (≈ 14 µM) | 6 µg/mL (≈ 14 µM) | > 10 µg/mL | > 10 µg/mL | > 20 µg/mL | > 20 µg/mL |  |  |  |  |  |  |  |
| CCCCCCCCCCCCCCCc1cccc(O)c1C(=O)O [AA, 6-pentadecyl salicylic acid, reference compound] | 0.5 µg/mL (≈ 1.43 µM) | 6 µg/mL (≈ 17.2 µM) | > 10 µg/mL | > 10 µg/mL | > 50 µg/mL | > 50 µg/mL | 1600 µg/mL (≈ 4590 µM) |  |  |  |  |  |  |
| CCCCCCCCCCCCCCCc1cccc(OC)c1C(=O)O [MAA, 2-Methoxy-6-Pentadecyl-benzoic acid] | 1 µg/mL (≈ 2.76 µM) | 6 µg/mL (≈ 16.5 µM) | 1 µg/mL (≈ 2.76 µM) | 8 µg/mL (≈ 22.1 µM) | 1 µg/mL (≈ 2.76 µM) | 4 µg/mL (≈ 11 µM) |  |  |  |  |  |  |  |
| CCCCCCCCCCCCCCCc1cccc(OC)c1C(=O)Nc1ccc([N+](=O)[O-])cc1 [MAA-PNA] | > 10 µg/mL | > 10 µg/mL | > 10 µg/mL | > 10 µg/mL | > 20 µg/mL | > 20 µg/mL |  |  |  |  |  |  |  |
| CCCCCCCCCCCCCCCc1cccc(OC)c1C(=O)NC1C(=O)N2C1SC(C)(C)C2C(=O)O (centres unmarked) [MAA-APA] | 6 µg/mL (≈ 10.7 µM) | > 10 µg/mL | > 10 µg/mL | > 10 µg/mL | 10 to 20 µg/mL (≈ 17.8 to 35.7 µM) | > 20 µg/mL |  |  |  |  |  |  |  |
| CCCCCCCCCCCCCCCc1cccc(OC)c1C(=O)NC(Cc1ccccc1)C(=O)O (centres unmarked) [MAA-F] | 6 µg/mL (≈ 11.8 µM) | > 10 µg/mL | > 10 µg/mL | > 10 µg/mL | > 20 µg/mL | > 20 µg/mL |  |  |  |  |  |  |  |
| CCCCCCCCCCCCCCCc1c([N+](=O)[O-])cc([N+](=O)[O-])c(O)c1C(=O)O [DAA, 3,5-Dinitro-6-pentadecyl-2-hydroxybenzoic acid] |  |  |  |  |  |  |  | 6 µg/mL (≈ 13.7 µM) | 6 µg/mL (≈ 13.7 µM) | 3 to 5 µg/mL (≈ 6.84 to 11.4 µM) | 2 µg/mL (≈ 4.56 µM) | 6 µg/mL (≈ 13.7 µM) | 3 µg/mL (≈ 6.84 µM) |
| C=C[C@@](C)(/C=C/c1ccc(OC(=O)c2c(CCCCCCCCCCCCCCC)cccc2OC)cc1)CCC=C(C)C [MAA-Ba] | 6 µg/mL (≈ 9.98 µM) | > 10 µg/mL | > 10 µg/mL | > 10 µg/mL | > 20 µg/mL | > 20 µg/mL |  |  |  |  |  |  |  |
| CCCCCCCCCCCCCCCc1cc([N+](=O)[O-])c([N+](=O)[O-])c(O)c1C(=O)O [NAA, 3,4-Dinitro-6-pentadecyl-2-hydroxybenzoic acid] |  |  |  |  |  |  |  | 7 µg/mL (≈ 16 µM) | 0.5 µg/mL (≈ 1.14 µM) | 7 to 8 µg/mL (≈ 16 to 18.2 µM) | 1 µg/mL (≈ 2.28 µM) | 10 µg/mL (≈ 22.8 µM) | 1 µg/mL (≈ 2.28 µM) |
